Patent US5525595A, “3- or 4-glycosyloxybenzopyran derivative and antiallergic agent containing the derivative as active ingredient” (priority 1993, dated 1996)

How the values were obtained:
[1] = tested on: airway resistance in experimental asthma model; assay: Effect on experimental asthma model in guinea pigs; format: in vivo, guinea pigs (Male hadley); conditions: Cavia porcellus; 100 mg/kg oral, OVA challenge, guinea pigs; Table 7
Description: The asthma is typical allergic disease and we carried out this pharmacological test by well known experimental asthma model in guinea pigs in order to confirm that the compounds of the present invention suppress the asthma. In the following, the method of the pharmacological test will be explained.
Method: Male hadley guinea pigs were immunized by intraperitoneal injection of saline (1 ml) containing 5 mg of ovalbumine (OVA) three times at interval of one week. 2 weeks after final immunization, the animals were challenged by inhalation of 1% OVA-saline solution for 1 minute and then the airway resistance of the animals were measured for 30 minutes with PULMOS-1 (Medical Interface Project Station Inc.) after the inhalation. The compounds of the present invention (test compounds) suspended in 0.5% CMCNa were given orally at a dose of 100 mg/kg. As positive control group, Disodium Cromoglicate (DSCG), well known anti-allergic agent, in saline were injected at a dose of 20 mg/kg into the vein of the animals. As vehicle control group, only 0.5% CMCNa solution were given orally. The inhibition (%) of the airway resistance in vehicle control group was calculated according to equation 5 and the result was shown in Table 7. Each experimental group consisted of 5 guinea pigs. [formula] In equation 5: A: Maximum airway resistance in vehicle control group
B: Maximum airway resistance in test compounds group or positive control group

[2] = tested on: contact dermatitis induced by picryl chloride; assay: Effect on contact dermatitis induced by picryl chloride in mice (delayed type hypersensitization); format: in vivo; conditions: Mus musculus; 100 mg/kg oral, ear thickness 24 hours after challenge; Table 6; read-out: Inhibition (%) against the increase of ear thickness
Description: The delayed type hypersensitization is inhibited by steroid, but can not be effected by known anti-allergic agents. In the following, the method of the pharmacological test will be explained.
Method: Mice, shaved their abdominal skin on previous day, were immunized by applying 0.1 ml of acetone containing 7 mg of picryl chloride to the skin of the abdomen. 7 days after immunization, the thickness of the ear was measured with a dial thickness gauge, then mice were challenged by painting 5 μl of 1% picryl chloride olive oil solution to each side skin of left ear. 24 hours after challenge, the thickness of the left ear was measured again and the increase (%) of thickness was calculated according to equation 2. The compounds of the present invention (test compounds) suspended in 0.5% CMCNa were forcibly administered orally at a dose of 100 mg/kg at 1 hour before and 16 hours after challenge. As vehicle control group, only 0.5% CMCNa solution were administered orally, and as positive control group, Prednisolone, steroid hormone, and Tranilast were administered orally at the doses of 10 mg/kg and 100 mg/kg, respectively.
Increase (%)=(A-B)/B×100 (Equation 2)
A: thickness of the ear at 24 hours after challenge
B: thickness of the ear before challenge
Inhibition(%)=(C-D)/C×100 (equation 3)
C: The increase (%) in vehicle control group
D: The increase (%) in test compounds group or positive control group

[3] = tested on: homologous passive cutaneous anaphylaxis (PCA) reaction; assay: Effect on homologous passive cutaneous anaphylaxis (PCA) reaction in rats; format: in vivo, rats (Male wistar rats); conditions: Rattus norvegicus, 0.5 h; 100 mg/kg oral, 1 hour before antigen, rats; Table 3
Description: This experimental animal model is caused by immediate type allergic reaction, namely, antigen-antibody reaction. In the following, the method of this pharmacological test will be explained.
Method: Male wistar rats (9 weeks old) were intradermally administered 0.05 ml of anti-serum against trinitrophenylated ascaris (TNP-As) into two sites on the shaved dorsal skin. 48 hours later, 3-glycosyloxybenzopyran derivatives and 4-glycosyloxybenzopyran derivatives (test compounds) suspended in 0.5% sodium carboxymethylcellulose (CMCNa) were given orally at a dose of 100 mg/kg to the animals. 1 hour after administration of Test compounds, the animals were induced anaphylaxis by injection of saline (1 ml) dissolving 5 mg of Evans Blue and 1 mg of TNP-As into the tail vein of the animals. 30 minutes after induction of anaphylaxis, animals were anesthetized by ether and killed by bleeding, and were flayed dorsal skin. The leakage of dye was assessed by measuring the diameter (mean of shortest and longest diameter) of the blue spot on the inside surface of dorsal skin. As vehicle control group, only 0.5% CMCNa solution was administered orally, and as positive control group, Tranilast suspended in 0.5% CMCNa were administered orally at a dose of 100 mg/kg to the animals with the same method as the test compounds groups. Each experimental group consisted of 5 rats. [formula] In equation 1: A: leakage of dye in vehicle control group
B: leakage of dye in test compound group or in positive control group
The anti-allergic activity of the compounds of the present invention were compared with that of analogous compounds which were published in the Patent (EP-A-0598117) by PCA reaction. This pharmacological test was performed according to the method described in Test Example 1.

COc1ccc2c(O)c(O[C@@H]3O[C@H](COC(C)=O)[C@H](OC(C)=O)[C@H](OC(C)=O)[C@H]3OC(C)=O)c(=O)oc2c1 [compound 9, 7-methoxy-4-hydroxy-3-(tetra-O-acetyl-β-D-galactopyranosyloxy)-2H-1-benzopyran-2-one]
inhibition in vivo at 100 mg/kg [1]: 58.4%
inhibition in vivo at 100 mg/kg [2]: 50.1%
inhibition in vivo at 100 mg/kg [3]: 51.3%

COc1ccc2c(O)c(O[C@H]3O[C@H](CO)[C@@H](O)[C@H](O)[C@@H]3O)c(=O)oc2c1 [compound 10, 7-methoxy-4-hydroxy-3-(α-D-mannopyranosyloxy)-2H-1-benzopyran-2-one]
inhibition in vivo at 100 mg/kg [1]: 49%
inhibition in vivo at 100 mg/kg [2]: 47.5%
inhibition in vivo at 100 mg/kg [3]: 50.3%

COc1ccc2c(O)c(O[C@@H]3O[C@H](CO)[C@H](O)[C@H](O)[C@H]3O)c(=O)oc2c1 [compound 11, 7-methoxy-4-hydroxy-3-(β-D-galactopyranosyloxy)-2H-1-benzopyran-2-one]
inhibition in vivo at 100 mg/kg [1]: 63.3%
inhibition in vivo at 100 mg/kg [2]: 53.3%
inhibition in vivo at 100 mg/kg [3]: 52.1%

CC(=O)Oc1ccc2c(OCc3ccccc3)c(O[C@@H]3O[C@H](COCc4ccccc4)[C@@H](OCc4ccccc4)[C@H](OCc4ccccc4)[C@H]3OCc3ccccc3)c(=O)oc2c1 [compound 12, 4-benzyloxy-7-acetoxy-3-(tetra-O-benzyl-β-D-glucopyranosyloxy)-2H-1-benzopyran-2-one]
inhibition in vivo at 100 mg/kg [1]: 39.2%
inhibition in vivo at 100 mg/kg [2]: 40.8%
inhibition in vivo at 100 mg/kg [3]: 41.3%

CC(=O)Oc1ccc2c(O)c(O[C@@H]3O[C@H](CO)[C@@H](O)[C@H](O)[C@H]3O)c(=O)oc2c1 [compound 13, 7-acetoxy-4-hydroxy-3-(β-D-glucopyranosyloxy)-2H-1-benzopyran-2-one]
inhibition in vivo at 100 mg/kg [1]: 57.7%
inhibition in vivo at 100 mg/kg [2]: 50.4%
inhibition in vivo at 100 mg/kg [3]: 58.7%

O=c1oc2cc(O)ccc2c(O)c1O[C@@H]1O[C@H](CO)[C@@H](O)[C@H](O)[C@H]1O [compound 14]
inhibition in vivo at 100 mg/kg [1]: 52.3%
inhibition in vivo at 100 mg/kg [2]: 47.5%
inhibition in vivo at 100 mg/kg [3]: 50.2%

CCCCOc1ccc2c(O)c(O[C@@H]3O[C@H](CO)[C@@H](O)[C@H](O)[C@H]3O)c(=O)oc2c1 [compound 15]
inhibition in vivo at 100 mg/kg [1]: 73.6%
inhibition in vivo at 100 mg/kg [2]: 58.5%
inhibition in vivo at 100 mg/kg [3]: 60.4%

CCCCCCCCOc1ccc2c(O)c(O[C@@H]3O[C@H](CO)[C@@H](O)[C@H](O)[C@H]3O)c(=O)oc2c1 [compound 16]
inhibition in vivo at 100 mg/kg [1]: 75.8%
inhibition in vivo at 100 mg/kg [2]: 64%
inhibition in vivo at 100 mg/kg [3]: 62.6%

CCCCCCCCCCCCOc1ccc2c(O)c(O[C@@H]3O[C@H](CO)[C@@H](O)[C@H](O)[C@H]3O)c(=O)oc2c1 [compound 17]
inhibition in vivo at 100 mg/kg [1]: 75%
inhibition in vivo at 100 mg/kg [2]: 59.2%
inhibition in vivo at 100 mg/kg [3]: 59.2%

CC(C)Oc1ccc2c(O)c(O[C@@H]3O[C@H](CO)[C@@H](O)[C@H](O)[C@H]3O)c(=O)oc2c1 [compound 18]
inhibition in vivo at 100 mg/kg [1]: 70.3%
inhibition in vivo at 100 mg/kg [2]: 56.9%
inhibition in vivo at 100 mg/kg [3]: 56.6%

CCC=CCCOc1ccc2c(O)c(O[C@@H]3O[C@H](CO)[C@@H](O)[C@H](O)[C@H]3O)c(=O)oc2c1 [compound 19]
inhibition in vivo at 100 mg/kg [1]: 73.1%
inhibition in vivo at 100 mg/kg [2]: 57.4%
inhibition in vivo at 100 mg/kg [3]: 56.8%

CC(C)=CCC/C(C)=C/COc1ccc2c(O)c(O[C@@H]3O[C@H](CO)[C@@H](O)[C@H](O)[C@H]3O)c(=O)oc2c1 [compound 20]
inhibition in vivo at 100 mg/kg [1]: 72.4%
inhibition in vivo at 100 mg/kg [2]: 56.2%
inhibition in vivo at 100 mg/kg [3]: 57.2%

O=C(Oc1ccc2c(O)c(O[C@@H]3O[C@H](CO)[C@@H](O)[C@H](O)[C@H]3O)c(=O)oc2c1)c1ccccc1 [compound 21]
inhibition in vivo at 100 mg/kg [1]: 60.7%
inhibition in vivo at 100 mg/kg [2]: 53.6%
inhibition in vivo at 100 mg/kg [3]: 54.4%
